The values below are quoted from earlier work in patent US4380639A, “Substituted 1,2,5-thiadiazole derivatives” (Bristol-Myers Company, priority 1981, dated 1983).

For data set [1] the following is noted: in vivo.
Data set [2] has as its system peptic ulcer disease. The note with it: clinical evaluation, Gray et al., Lancet 1977.
In data set [3] the test system is H2 -receptor.

As to `CNC(=S)NCCCCc1cnc[nH]1` [Burimamide], in data set [1], the oral absorption result was “oral absorption is poor”.
As for `CNC(=NC#N)NCCSCc1[nH]cnc1C` [Cimetidine], in data set [2], the “therapeutic effectiveness in peptic ulcer disease” value is “effective therapeutic agent in the treatment of peptic ulcer disease”. The “H2 -antagonist potency/effectiveness relative to comparator” value in data set [3] is recorded as “as effective an H2 -antagonist as metiamide”.
As for `CNC(=S)NCCSCc1[nH]cnc1C` [Metiamide], the “H2 -antagonist potency/effectiveness relative to comparator” value in data set [3] is reported as “more potent than burimamide”.
